Experimental data as given in ChEMBL document CHEMBL1133622, “Probes for narcotic receptor-mediated phenomena. 27. Synthesis and pharmacological evaluation of selective delta-opioid receptor agonists from 4-[(alphaR)-alpha-(2S,5R)-4-substituted-2, 5-dimethyl-1-piperazinyl-3-methoxybenzyl]-N,N-diethylbenzamides and their enantiomers” (J Med Chem, 2000).

What was measured:
[1] = target: Delta-type opioid receptor (Rattus norvegicus, UniProt P33533); test: Inhibition of [3H]-DADLE binding to rat brain membrane Opioid receptor delta 1
[2] = target: Delta-type opioid receptor (Rattus norvegicus) (UniProt P33533); test: Percent stimulation of [35S]GTP-gamma-S, binding at 10 uM; type: functional
Rattus norvegicus [3] = species on record: Rattus norvegicus; test: (§1) Percent inhibition of SNC80 stimulated [35S]GTP-gamma-S, binding by the compound (10 uM); type: functional
[4] = target: Delta-type opioid receptor (Rattus norvegicus) (UniProt P33533); test: Percent inhibition of SNC80 stimulated [35S]GTP-gamma-S, binding at 10 uM; type: functional
[5] = target: Delta-type opioid receptor (Rattus norvegicus) (UniProt P33533); test: as §1; type: functional
Rattus norvegicus [6] = species on record: Rattus norvegicus; test: Percent stimulation of [35S]GTP-gamma-S, binding by the compound (10 uM); type: functional

Delta-type opioid receptor, sequence (P33533 whole entry): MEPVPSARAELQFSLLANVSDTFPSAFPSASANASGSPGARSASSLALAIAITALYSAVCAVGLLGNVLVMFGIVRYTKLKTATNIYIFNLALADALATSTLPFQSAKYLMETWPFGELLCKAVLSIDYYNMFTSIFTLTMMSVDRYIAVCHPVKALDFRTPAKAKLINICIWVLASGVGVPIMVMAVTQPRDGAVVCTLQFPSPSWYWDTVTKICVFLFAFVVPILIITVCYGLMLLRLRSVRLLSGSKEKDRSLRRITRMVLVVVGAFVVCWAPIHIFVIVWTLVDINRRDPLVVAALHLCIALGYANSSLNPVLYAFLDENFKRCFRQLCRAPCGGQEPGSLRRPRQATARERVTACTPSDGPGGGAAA
Delta-type opioid receptor (Rattus norvegicus), sequence (P33533 whole entry): as above

Compound CCCCN1C[C@H](C)N([C@H](c2ccc(C(=O)N(CC)CC)cc2)c2cccc(OC)c2)C[C@H]1C has a Ki [1] of 2.7 nM, a Stimulation [2] of 66% and an Inhibition (Rattus norvegicus [3]) of 19%.
With CCN(CC)C(=O)c1ccc([C@H](c2cccc(OC)c2)N2C[C@@H](C)N(C)C[C@@H]2C)cc1 the Ki [1] was 4.5 nM, the Stimulation [2] was 25% and the inhibition [4] was 18%.
Compound CCCCCN1C[C@H](C)N([C@H](c2ccc(C(=O)N(CC)CC)cc2)c2cccc(OC)c2)C[C@H]1C has a Ki [1] of 4.7 nM, a Stimulation [2] of 26% and an inhibition [5] of 28%.
Compound CCN(CC)C(=O)c1ccc([C@H](c2cccc(OC)c2)N2C[C@@H](C)N(CC)C[C@@H]2C)cc1 has a Ki [1] of 5.2 nM, a Stimulation [2] of 45% and an inhibition [5] of 13%.
For CCN(CC)C(=O)c1ccc([C@H](c2cccc(OC)c2)N2C[C@@H](C)NC[C@@H]2C)cc1, the Ki [1] was 4.7 nM, the Stimulation [2] was 63% and the inhibition [4] was 11%.
CCN(CC)C(=O)c1ccc([C@H](c2cccc(OC)c2)N2C[C@@H](C)N(CC3CC3)C[C@@H]2C)cc1 showed a Ki [1] of 3.5 nM, a Stimulation [2] of 48% and an inhibition [5] of 18%.
Compound CCN(CC)C(=O)c1ccc([C@H](c2cccc(OC)c2)N2C[C@@H](C)N(CCCc3ccccc3)C[C@@H]2C)cc1 has a Ki [1] of 16.7 nM, a Stimulation [2] of 18% and an inhibition [4] of 13%.
With C=CCN1C[C@H](C)N([C@H](c2ccc(C(=O)N(CC)CC)cc2)c2cccc(OC)c2)C[C@H]1C [SNC-80] the Stimulation (Rattus norvegicus [6]) was 128% and the Inhibition (Rattus norvegicus [3]) was 0%.
Compound C=C(C)CN1C[C@H](C)N([C@H](c2ccc(C(=O)N(CC)CC)cc2)c2cccc(OC)c2)C[C@H]1C has a Ki [1] of 4.8 nM, a Stimulation [2] of 119% and an inhibition [4] of 2.3%.
Work on CCCCCCN1C[C@H](C)N([C@H](c2ccc(C(=O)N(CC)CC)cc2)c2cccc(OC)c2)C[C@H]1C yielded a Ki [1] of 10.4 nM, a Stimulation [2] of 21% and an inhibition [4] of 34%.
CCN(CC)C(=O)c1ccc([C@H](c2cccc(OC)c2)N2C[C@@H](C)N(Cc3ccccc3)C[C@@H]2C)cc1 was tested, and the Ki [1] was 6.2 nM, the Stimulation [2] was 144% and the inhibition [4] was 0%.
C/C=C/CN1C[C@H](C)N([C@H](c2ccc(C(=O)N(CC)CC)cc2)c2cccc(OC)c2)C[C@H]1C showed a Ki [1] of 1.9 nM, a Stimulation [2] of 130% and an inhibition [4] of 6.3%.
CCN(CC)C(=O)c1ccc([C@H](c2cccc(OC)c2)N2C[C@@H](C)N(CCc3ccccc3)C[C@@H]2C)cc1 was tested, and the Ki [1] was 30.6 nM, the Stimulation [2] was 10% and the inhibition [4] was 30%.
